The results in this text go back to ChEMBL document CHEMBL3580619, “The antimalarial drug atovaquone binds to saposin B with comparable affinity to coenzyme Q10” (Medchemcomm, 2014).

Where only a bound is given, the exact number is not on record here.

The target in data set [1] is T1, Albumin (Homo sapiens, UniProt P02768). The data set is described as follows: Binding affinity to human serum albumin at 150 uM using 20 uM HSA and 20 mM phosphate and 30% DMF at pH 7.4 and 25 degC by ITC method. The data set is classed as ADME. Conditions: isolated protein, pH 7.4, 150 µM.
Data set [2] has as its target T1, Albumin. Briefly: Binding affinity to human serum albumin by CD spectroscopy. Conditions: isolated protein. The data set is classed as ADME.
The target of data set [3] is T2, Prosaposin (Homo sapiens, UniProt P07602).
T2 sequence (P07602 whole entry): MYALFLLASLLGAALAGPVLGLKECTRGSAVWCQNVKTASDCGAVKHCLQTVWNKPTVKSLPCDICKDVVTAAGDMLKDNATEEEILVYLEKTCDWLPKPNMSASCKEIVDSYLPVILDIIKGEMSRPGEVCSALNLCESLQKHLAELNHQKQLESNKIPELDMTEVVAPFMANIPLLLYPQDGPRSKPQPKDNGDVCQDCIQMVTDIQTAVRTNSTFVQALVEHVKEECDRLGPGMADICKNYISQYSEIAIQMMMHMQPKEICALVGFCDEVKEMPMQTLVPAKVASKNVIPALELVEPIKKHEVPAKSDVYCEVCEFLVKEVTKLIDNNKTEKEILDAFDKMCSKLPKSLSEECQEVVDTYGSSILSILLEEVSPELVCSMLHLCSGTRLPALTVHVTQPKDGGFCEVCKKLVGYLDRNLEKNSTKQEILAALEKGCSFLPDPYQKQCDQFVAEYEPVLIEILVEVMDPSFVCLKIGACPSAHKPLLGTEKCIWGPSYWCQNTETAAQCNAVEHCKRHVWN
Briefly: Binding affinity to human saposin B expressed in Escherichia coli BL21 Gold (DE3) at 150 um using 20 uM SapB and 20 mM phosphate and 30% DMF at pH 7.4 and 25 degC by ITC method. The data set is classed as ADME. As to conditions: pH 7.4, 150 µM.

Data set [4] in a line: Protein binding in human plasma. Conditions: read-out: PPB. It counts as ADME, cell-free.
Data set [5] concerns the target T1, Albumin. The data set is described as follows: Ratio of Ka for human serum albumin by ITC method to Ka for human serum albumin by CD spectroscopy. The data set is classed as ADME.
In data set [6] the target is T1, Albumin. The data set is described as follows: Binding affinity to human serum albumin at 845 uM using 33.8 uM HSA and 14 mM phosphate and 30% DMF at pH 7.4 and 25 degC by fluorescence spectroscopy. The data set is classed as ADME. Conditions: isolated protein, pH 7.4, 845 µM.
Data set [7] in a line: Inhibition of coenzyme Q10 binding to cytochrome bc1 complex (unknown origin).
The target in data set [8] is T1, Albumin. The data set is described as follows: Binding affinity to human serum albumin in Ringer buffer and 2 to 7% v/v ethanol at pH 7.4 and 37 degC by CD spectroscopy. The data set is classed as ADME. As to conditions: isolated protein.
Data set [9] has as its target T2, Prosaposin. Briefly: Binding affinity to human saposin B expressed in Escherichia coli BL21 Gold (DE3) at 150 uM using 15 to 20 uM sapB and 50 mM MES and 10% DMF at pH 5.5 and 25 degC by ITC method. It counts as ADME. Conditions: pH 5.5, 150 µM.
The target in data set [10] is T2, Prosaposin. Briefly: Binding affinity to human saposin B expressed in Escherichia coli BL21 Gold (DE3) at 154 uM using 25 to 27 uM sapB and 50 mM MES and 50% DMF at pH 5.5 and 25 degC by ITC method. Conditions: pH 5.5, 154 µM. The data set is classed as ADME.
For data set [11], the target named is T2, Prosaposin. The data set is described as follows: Binding affinity to human saposin B expressed in Escherichia coli BL21 Gold (DE3) at 120 uM using 15 uM sapB and 50 mM MES and 4% THF at pH 5.5 and 25 degC by ITC method. It counts as ADME. Conditions: pH 5.5, 120 µM.

T1 sequence (P02768 whole entry): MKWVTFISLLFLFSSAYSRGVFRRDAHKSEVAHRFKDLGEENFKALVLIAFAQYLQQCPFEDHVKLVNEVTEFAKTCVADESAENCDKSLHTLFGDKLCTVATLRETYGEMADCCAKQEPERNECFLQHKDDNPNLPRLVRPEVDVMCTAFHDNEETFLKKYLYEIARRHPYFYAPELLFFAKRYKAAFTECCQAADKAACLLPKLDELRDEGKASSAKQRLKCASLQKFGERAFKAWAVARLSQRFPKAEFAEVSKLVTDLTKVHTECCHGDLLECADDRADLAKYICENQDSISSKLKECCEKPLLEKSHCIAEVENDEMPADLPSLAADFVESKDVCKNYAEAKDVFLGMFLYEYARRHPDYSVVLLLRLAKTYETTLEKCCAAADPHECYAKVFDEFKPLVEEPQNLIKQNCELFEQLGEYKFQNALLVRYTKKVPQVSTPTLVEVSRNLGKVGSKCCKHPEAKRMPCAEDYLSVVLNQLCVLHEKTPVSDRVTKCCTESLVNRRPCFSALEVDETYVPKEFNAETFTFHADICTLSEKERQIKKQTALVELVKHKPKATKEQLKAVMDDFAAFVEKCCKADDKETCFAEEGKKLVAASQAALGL

As to `O=C1C(O)=C([C@H]2CC[C@H](c3ccc(Cl)cc3)CC2)C(=O)c2ccccc21` [ATOVAQUONE], the K in [1] is recorded as 1.06 ×10⁵ /M; in data set [3], 8.02 ×10⁴ /M; in data set [8], 1 ×10⁶ /M; in [9] it was 1.11 ×10⁷ /M. The Ka in data set [2] stood at 2 ×10⁶ /M; in data set [6], 7.15 ×10⁴ /M. Moreover, the fraction unbound in [4] was less than 0.005. In addition, in data set [5], the Ratio is on record as 10. Besides, affinity in [7] was put at a Ki of 9 nM.
Regarding `COC1=C(OC)C(=O)C(C/C=C(\C)CC/C=C(\C)CC/C=C(\C)CC/C=C(\C)CC/C=C(\C)CC/C=C(\C)CC/C=C(\C)CC/C=C(\C)CC/C=C(\C)CCC=C(C)C)=C(C)C1=O` [UBIDECARENONE], the K in [10] turned out to be 1.7 ×10⁷ /M; in [11], 2.41 ×10⁷ /M.
